Results on five molecules are retold here after patent publication US11857521B1, “Anti-mycobacterial drugs” (priority 2022, dated 2024).

The test system of data set [1] is M. smegmatis mc^2155. Format: cell-based, Mycobacterium smegmatis.
The next data set has as its system S. aureus ATCC 6538. The data set is classed as cell-based, Staphylococcus aureus.
For a further data set, the system named is E. coli ATCC 8739. The data set is classed as cell-based, Escherichia coli.
For data set [2], the system named is M. smegmatis. Kind of data set: Checkerboard assay with OCG. Format: cell-based, Mycobacterium smegmatis. The following applies: for Interaction / FICI (Fractional Inhibitory Concentration Index): drug in combination with OCG; for FICI (Fractional Inhibitory Concentration Index): range of three experiments.
The conditions of data set [3]: 2 mM OCG in 100 mM NaCl, titrated with 25 mM NaOH.
Description: The pH was measured using a Mettler Toledo in Lab Ultra-Micro pH Probe. The acidified solution was titrated at 5 μL increments of 25 mM NaOH. The pH readings were recorded from pH ˜2.5-11. After plotting ΔpH/Δvolume of NaOH, the two points where the largest change in pH occurred were found. The median volume between the two maxima was identified as the point where pH=pKa. Solution of 100 mM NaCl served as control. Experiment was performed in triplicates.
Data set [4] has as its system M. smegmatis mc^2155. The following applies: 4×MIC for 1 h.
Description: Similarly, outer membrane permeability assay using 10 μM N-Phenyl-2-naphthylamine in 4% acetone was used as a non-fluorescent dye that upon hydrophobic interaction, it emits fluorescence signal. Cells were grown to mid-log phase (OD600=0.5), centrifuged at 4000×g for 2 min at 25° C., washed and resuspended in 5 mM HEPES buffer, pH 7.2. Compounds were made in HEPES buffer and 50 μL was added to an optical bottom black-sided 96-well microtiter plate. Then 50 μL of 40 μM NPN solution and 100 μL of cell suspension were added to the plate. Fluorescence was measured at 350/400 nm (excitation/emission) for 1 h. Experiments were performed in triplicates.
In data set [5] the test system is M. smegmatis mc^2155. The following applies: 2×MIC.
Description: M. smegmatis mc^2155 was culture as previously described in the MIC assay. […] After treatment period, 500 μL of the solution was centrifuge at 3000×g for 30 s at 25° C. The pellet was resuspended in 1 mL glutaraldehyde/cacodylate fixative solution and stored at −20° C. before imaging. Images were analyzed for significant morphological changes. The frequency of membrane ruffling, membrane delamination, cytosolic leakage, and cells that appeared hollowed (i.e., cell death) were counted and divided by the total cell number per frame. The percent of the observed cell envelope stress indicators was used for statistical analysis.
Data set [6] has as its system M. smegmatis. Conditions: after 2 h of treatment.
In a further data set the test system is MSMEG_5072. Conditions: 2×MIC for an hour, sigA housekeeping gene.
Another data set concerns MSMEG_2694. Conditions: 2×MIC for an hour, sigA housekeeping gene.
The test system of data set [7] is M. smegmatis membrane potential (Δψ). Conditions: OCG at 2×MIC; CCCP at various concentrations. As to the method: Bacterial cells were grown to late log-phase in 7H9. Cells were centrifuged at 3000×g for 5 min at 25° C., washed twice and resuspended in 10 mL of 5 mM HEPES buffer, pH 7.2 supplemented with 1 mM glucose. OD600 of the cells was then adjusted to 0.4. The cell suspension was treated with 1 μM of the potentiometric probe 3,3′-Dipropylthiadicarbocyanine Iodide (DiSC3(5)) was added. It was incubated at 37° C., and monitored the quenching of DiSC3(5) dye in the presence of M. smegmatis cells for 30 min. In a black-sided 96-well microtiter plate, polymer solution was added to the plate and serially diluted two-fold in 50 mM HEPES buffer supplemented with 1 mM glucose and 2% DMSO for a final volume of 50 μL per well and 1% DMSO. After 30 min of quenching DiSC3(5), 50 μL of the bacterial suspension with dye was added to the polymer-containing wells. […] Fluorescence was recorded 590/635 nm (excitation/emission) for 1 h every 10 min on a BioTek Synergy H1 plate reader. Assay was performed at least three independent experiments.

The mark [8] stands for this setting: Mycolicibacterium smegmatis, single agent in checkerboard assay, M. smegmatis, read-out: MIC.

Read-outs that look alike come from different tables or passages of the source.

Broadly, the MIC is the lowest concentration found to suppress growth. As usually defined, the pKa is the negative logarithm of the acid dissociation constant. Read a low pKa as a stronger acid or weaker base.

Description for MSMEG_2694: (§1) The bacterial cell suspension centrifuged at 40000×g for 5 min at 25° C. and resuspended in 1 mL guanidine thiocyanate (GTC) buffer. The cells were spun down at 12000×g for 5 min and resuspended in 750 μL of TRIzol reagent (Invitrogen), and added to 0.5 mL of 0.1 mm zirconia/silica beads. Cells were lysed in a bead beater for two 1 min intervals with incubation on ice between intervals. Afterwards, 2004 of chloroform was added to the tube, mixed, and spun at 12000×g for 15 min. The aqueous layer was carefully removed to 500 μL of RNase-free ethanol and mixed. From the solution, 700 μL were loaded onto Rnease Kit (Qiagen) miniprep columns and spun at 10000×g for 1 min. The remainder of the solution was then loaded and spun. The column was washed with 700 μL of RW1 buffer and discarded. The column was then washed twice with 500 μL RPE buffer and spun as previously described. The column was transferred to a new tube to elute the sample using 30 μL of RNase-free water and spun.
(§2) To ensure there is DNA-free, the sample was treated using TURBO DNA-free kit (Ambion) where a 1 μL of DNase and 3.5 μL of 10×DNase Buffer were added to the 30 μL of RNA and incubated for 1 h at 37° C. […] The concentration of RNA was determined through a ThermoFisher multichannel NanoDrop and adjusted to 50 ng/mL for cDNA reaction. […]
Description for MSMEG_5072: as §1, §2

Regarding oligo(carbamoylated guanidine) [OCG], in the data set on M. smegmatis mc^2155 [1], the “change of MIC, Msm cultured in LB compared with 7H9 medium” value is “increased ˜four times”. The “MIC90 Msm” value was 6 µg/mL with M. smegmatis mc^2155 [1] (M. smegmatis mc 155, Table 2); 6 µg/mL in the data set with M. smegmatis mc^2155 [1] (Msm mc^2 155 grown in 7H9 medium); 25 to 50 µg/mL in the data set on M. smegmatis mc^2155 [1] (Msm mc^2 155 grown in LB). For the same molecule, the “MIC90 Sa” value against S. aureus ATCC 6538 came out at 50 µg/mL. Moreover, the “MIC90 Ec” value in the data set with E. coli ATCC 8739 was >200 µg/mL. The minimal inhibitory concentration (MIC) in the data set on M. smegmatis [2] (single agent in checkerboard assay, M. smegmatis) stood at 6 µM. Besides, the “MIC90 Bc” value in the data set on B. cepacia ATCC 2516 is >200 µg/mL. Further, the “MIC90 Pa” value against P. aureginosa ATCC 15442 is >200 µg/mL. Besides, the “MIC90 Ca” value with C. albicans ATCC 10231 is >200 µg/mL. Moreover, the “MIC90 BCG” value against M. bovis BCG worked out at 25 µg/mL. The “MIC90 Mab S” value against Mab 3690 S came out at 65 µg/mL. Moreover, the “MIC90 Mab R” value in the data set with Mab 3690 R was 188 µg/mL. Besides, the “change of MIC, Mab R morphotype compared with S” value with Mab 3690 R is on record as “˜three-fold increase”. The pKa in data set [3] was ~5. The “NPN fluorescence (membrane damage)” value in the data set on M. smegmatis mc^2155 [4] is “no fluorescence intensity increase”. In addition, the “TEM: membrane ruffling and delamination” value in the data set on M. smegmatis mc^2155 [5] (starting from 1 h) is “signs of membrane stress including ruffling and delamination were observed”. Besides, in the data set with M. smegmatis mc^2155 [5] (up to 24 h incubation), the “TEM: frequency of cytosolic leakage, treated vs non-treated” value is “no significant difference”. In addition, in the data set on M. smegmatis [6], the “intracellular ATP levels (RLUs/CFUs)” value was “depletion of ATP levels”. Further, the “increased expression level of MSMEG_5072 compared to control Msm” value in the data set on MSMEG_5072 was 10 fold. Moreover, the “increased expression level of MSMEG_2694 compared to control Msm” value in the data set with MSMEG_2694 worked out at 50 fold.

As for `CO[C@H]1/C=C/O[C@@]2(C)Oc3c(C)c(O)c4c(O)c(c(/C=N/N5CCN(C)CC5)c(O)c4c3C2=O)NC(=O)/C(C)=C\C=C\[C@H](C)[C@H](O)[C@@H](C)[C@@H](O)[C@@H](C)[C@H](OC(C)=O)[C@@H]1C` [Rifampin (RIF), rifampin], the MIC with M. smegmatis [2] (setting [8]) was determined as 8 µg/mL. Moreover, in the data set on M. smegmatis [2] (M. smegmatis), the Interaction result is “Additive” and the “FICI (Fractional Inhibitory Concentration Index)” value is recorded as 1-2.

As to `CC(C)/N=c1\cc2n(-c3ccc(Cl)cc3)c3ccccc3nc-2cc1Nc1ccc(Cl)cc1` [Clofazimine (CLZ), clofazimine], the minimal inhibitory concentration (MIC) in the data set on M. smegmatis [2] (setting [8]) came to 2.5 µg/mL. Besides, in the data set with M. smegmatis [2] (M. smegmatis), the Interaction entry was “Additive”. For the same molecule, the “FICI (Fractional Inhibitory Concentration Index)” value in the data set on M. smegmatis [2] (M. smegmatis) is given as 0.5-0.75; in the data set with M. smegmatis [2] (M. smegmatis, listed as CLZ) it was 0.50-0.75.

For the molecule `COc1nc2ccc(Br)cc2cc1[C@@H](c1ccccc1)[C@@](O)(CCN(C)C)c1cccc2ccccc12` [Bedaquiline (BDQ), bedaquiline], in the data set on M. smegmatis [2] (Mycolicibacterium smegmatis), the MIC was found to be 0.12 µg/mL. In the data set on M. smegmatis [2] (M. smegmatis), the Interaction entry is listed as “Synergy” and the “FICI (Fractional Inhibitory Concentration Index)” value was 0.38-0.5.

Regarding “cyanide m-chlorophenyl hydrazone [CCCP, reference compound]”, the “membrane potential (Δψ), DiSC3(5) fluorescence” value in [7] is on record as “did not exhibit concentration-dependent potential changes”.
